Test results as given in paper PMC5643462, “Encrypted Antimicrobial Peptides from Plant Proteins” (Scientific Reports, 2017).
No end group written: not given here.

Tests used:
[1] = tested on: human red blood cells; assay: Cytotoxicity: hemolysis of human red blood cells; type: cell-based; details: for Concentration that induced 50% hemolysis: red cells of human
Description: The cytotoxicity of the selected IAPS was performed using human red blood cells in strict accordance with relevant guidelines and regulations (Ethical committee – UnB # 1.939.989). Different concentrations of IAPs (128 µM–0.5 µM) were incubated with a final concentration of 2.5 × 10^5 red blood cells.mL^−1. Briefly, 100 µL of red blood cells was incubated with 100 µL of different concentrations of each IAP, prepared in PBS, for 30 minutes at 37 °C, with constant shaking at 120 rpm. PBS and Triton X-100 0.1% (v/v) were used as negative and positive controls, respectively. After incubation, the solution was centrifuged at 900 × g for five minutes followed by transferring 50 µL of the supernatant to flat-bottom polystyrene 96-well micro plates containing 50 µL of PBS. Microplate reading was performed at a BioTek Multireader, using a wavelength of 540 nm. All tests were performed in 3 biological replicates, composed of 3 biological repetitions each. The obtained data was subtracted by the negative control and relative to the positive control, defined as 100% lysis.

[2] = tested on: Moniliophthora perniciosa basidiospores; assay: Inhibition of M. perniciosa basidiospore germination; type: cell-based; details: 1 × 10^6 basidiospores mL^−1, one hour with peptide (256-0.5 µM), 24 °C, counted after 4 hours on agar slides, biological triplicates; for IC50: concentration at which at least 50% of basidiospores germination was inhibited, read-out: Inhibitory concentration IC50, M. perniciosa basidiospores germination; for Inhibitory concentration IC95, M. perniciosa basidiospores germination: concentration at which at least 95% of basidiospores germination was inhibited
Description: The antimicrobial potential of T. cacao IAPs for inhibiting M. perniciosa basidiospores was evaluated. Briefly, 1 × 10^6 basidiospores mL^−1 were incubated for one hour with different concentrations of T. cacao IAPs (256-0.5 µM), at 24 °C, in a final volume of 100 µL. Autoclaved dH20 was used as a control. After incubation, 3 droplets of 10 µL each were placed in a slide coated with agar (1.2% (w/v)). Slides were incubated for 4, 24 and 48 hours at 24 °C. Slides were visualized using a DMRXA light microscope (Leica). Approximately 150–200 basidiospores per droplet from each time point were counted and compared to the control condition, which was defined as 100% germination. All experiments were performed in biological triplicates, with 3 technical repetitions each.

[3] = Far-UV circular dichroism, helix percentage in buffer and with LUVs; type: physicochemical; details: room temperature, from [θ]222 nm, * = β-sheet structure
Description: DMPC and 2:1 DMPC:DMPG (w/w) were dissolved in chloroform and methanol (3:1 v/v) at 10 mg/mL, dried using a rotary evaporator and left 3 hours under high vacuum in a freeze dryer. Phospholipids were then dissolved in 20 mM Sodium phosphate – NaOH, 150 mM NaCl, pH 7.4 and hand-shaken until the formation of a cloudy solution, which was passed 19 times through a 100 nm polycarbonate membrane at 30 °C for the formation of large unilamelar vesicles (LUVs) using a mini-extruder (Avanti Polar Lipids). Phospholipid concentration was estimated according to the ammonium ferrothiocyanate method.
Experiments were conducted on a Jasco-J815 spectropolarimeter (Jasco International Co.). Spectra were acquired at room temperature from 200 to 260 nm as an average of 4 readings using a 0.1 cm path length cell, data pitch of 0.2 nm and a response time of 0.5 s. Data Scans of buffer and 2 mM DMPC and 2:1 DMPC:DMPG LUVs solutions were acquired and subtracted from each peptide data. Peptides were scanned at a concentration of 40 μM in buffer and then 50 fold excess of DMPC and 2:1 DMPC:DMPG LUVs were added, resulting in a molar ratio of 0.02 peptide/phospholipid. The spectra were converted to mean residue ellipticity and readings at [θ]222 nm were used to estimate helix percentages.

Row | Substance | Hemolytic activity (% ± SD) at 1 µM [1] [%] | Hemolytic activity (% ± SD) at 2 µM [1] [%] | Hemolytic activity (% ± SD) at 4 µM [1] [%] | Hemolytic activity (% ± SD) at 8 µM [1] | Hemolytic activity (% ± SD) at 16 µM [1] [%] | Hemolytic activity (% ± SD) at 32 µM [1] [%] | Hemolytic activity (% ± SD) at 64 µM [1] [%] | Hemolytic activity (% ± SD) at 128 µM [1] [%] | Hemolytic activity of human red blood cells (%) SC50 [1] [µM] | Concentration that induced 50% hemolysis [1] [µM] | IC50 [2] [µM] | Inhibitory concentration IC95, M. perniciosa basidiospores germination [2] [µM] | %Hel 2:1 DMPC/DMPG ([3]; 40 μM peptide + 2 mM 2:1 DMPC:DMPG LUVs (50 fold excess), pH 7.4 buffer) [%] | %Hel DMPC ([3]; 40 μM peptide + 2 mM DMPC LUVs (50 fold excess), pH 7.4 buffer) [%] | %Hel buffer ([3]; 40 μM peptide in 20 mM sodium phosphate, 150 mM NaCl, pH 7.4) [%]
1 | ANRLLEAYKMLLKFLGNLR-NH2 [Gr02] | 0.01 ± 0.01 | 0.38 ± 0.09 | 1.23 ± 0.05 | 4.19 ± 0.78% | 7.01 ± 3.48 | 28.33 ± 4.77 | 46.44 ± 7.63 | 68.42 ± 5.45 | 64 | 64 | – | – | – | – | –
2 | FFYNVIKIYGNMAGRISK-NH2 [Cs03] | 0.00 ± 0.00 | 0.02 ± 0.00 | 0.01 ± 0.00 | 0.00 ± 0.00% | 0.21 ± 0.05 | 0.99 ± 0.34 | 4.11 ± 1.22 | 14.51 ± 1.55 | >128 | – | – | – | – | – | –
3 | GAKLAKKQVRALGKFFSF-NH2 [At03] | 0.00 ± 0.00 | 0.00 ± 0.00 | 0.04 ± 0.01 | 0.02 ± 0.00% | 0.00 ± 0.00 | 0.03 ± 0.00 | 0.17 ± 0.08 | 0.34 ± 0.11 | >128 | – | – | – | – | – | –
4 | GFKDLLKGAAKALVKTVLF-NH2 [Asc-8, Ascaphin-8, reference compound] | 0.00 ± 0.00 | 0.32 ± 0.1 | 0.26 ± 0.2 | 14.72 ± 0 .79% | 28.10 ± 4.76 | 54.35 ± 4.5 | 91.90 ± 6.36 | 101.56 ± 9.52 | 16 | – | 8 | 16 | – | – | –
5 | GIVLKDLFSEKLRRYKIVIG [Tc09, IAP from Theobroma cacao, NB-ARC domain-containing disease resistance protein, putative] | – | – | – | – | – | – | – | – | – | – | – | – | 0.0 | 19.3 | 12.3
6 | GKILKYLLYLLRKYANLIIR-NH2 [Tc02] | 0.00 ± 0.00 | 0.00 ± 0.00 | 0.40 ± 0.26 | 2.89 ± 1.12% | 6.30 ± 1.59 | 17.39 ± 1.15 | 29.15 ± 2.57 | 50.15 ± 5.15 | 64 | 64 | 8 | 16 | – | – | –
7 | GLLFKELQKLIRYQIFIGK-NH2 [Tc10] | 0.00 ± 0.0 | 0.00 ± 0.0 | 0.18 ± 0.04 | 0.06 ± 0.02% | 0.00 ± 0.00 | 0.23 ± 0.10 | 0.68 ± 0.17 | 4.56 ± 0.58 | >128 | – | 32 | 64 | – | – | –
8 | GLYNFIKVLGRTVFGLYKQF-NH2 [At04] | 0.00 ± 0.00 | 0.00 ± 0.00 | 0.00 ± 0.00 | 0.09 ± 0.04% | 0.40 ± 0.10 | 0.91 ± 0.20 | 4.12 ± 1.41 | 13.8 ± 2.41 | >128 | – | – | – | – | – | –
